Columns and labels:
[1] = tested on: splenocytes (IFNγ secretion); assay: ELISPOT-IFNγ on splenocytes of BALB/c and C57BL/6 mice vaccinated with murine microbiota peptides (Example 16); format: in vivo, mouse; conditions: for T cell responses in the ELISPOT-IFNγ assay (in words): C57BL/6 mice (H2 Db B2) or BALB/c mice (H2 Ld B5), vaccination + OVA 323-339 + IFA, ex vivo stimulation with bacterial peptide; for T cell responses in the ELISPOT-IFNγ assay against the murine reference epitopes (in words): ex vivo stimulation with H2 Db M2 (C57BL/6) or H2 Ld M5 (BALB/c)
Method: Briefly, BALB/c mice and C57BL/6 mice were assigned randomly to two experimental groups for each mouse strain, each group immunized with a specific vaccination peptide (vacc-pAg) combined to a common helper peptide (OVA 323-339 peptide; sequence: ISQAVHAAHAEINEAGR; SEQ ID NO: 164) and Incomplete Freund's Adjuvant (IFA) as shown in Table 23.
(§1) The animals were immunized on day 0 (d0) with a prime injection, and on d14 with a boost injection. Each mouse was injected s.c. at tail base with 100 μL of an oil-based emulsion that contained: • 100 μg of vacc-pAg (25 μL of 4 mg/mL stock per mouse); • 150 μg of h-pAg (15 μL of 10 mg/mL stock per mouse); • 10 μL of PBS to reach a total volume of 50 μL (per mouse); • Incomplete Freund's Adjuvant (IFA) added at 1:1 (v:v) ratio (50 μL per mouse).
Seven days after the boost injection (i.e. on d21), the animals were euthanized and the spleen was harvested. Splenocytes were prepared by mechanical disruption of the organ followed by 70 μm-filtering and Ficoll density gradient purification. Spleen weight, splenocyte number and viability were immediately assessed (Table 24).
The splenocytes were used in an ELISPOT-IFNγ assay (Table X). Experimental conditions were repeated in quadruplets, using 2*10^5 total splenocytes per well, and were cultured in presence of vacc-pAg (10 μM), mice peptide homolog, positive control (1 ng/ml of Phorbol 12-myristate 13-acetate (PMA) and 500 ng/ml of Ionomycin) or medium-only to assess for their capacity to secrete IFNγ.
The commercial ELISPOT-IFNγ kit (Diaclone Kit Mujrine IFNγ ELISpot) was used following the manufacturer's instructions, and the assay was performed after about 16 h of incubation.
Spots were counted on a Grand ImmunoSpor S6 Ultimate UV Image Analyzer interfaced to the ImmunoSpot 5.4 software (CTL-Europe). Data plotting and statistical analysis were performed with the Prism-5 software (GraphPad Software Inc.).

[2] = molecular target: T1, HLA-A*0201 (Homo sapiens, UniProt P04439, D140Y/D185E/D98H/E176V/E277Q/G131W/G231S/I119V/I121R/I166T/I218V/L300P/L318F/N151K/N90K/P208A/P217A/Q86G/Q94H/R138H/R169H/T345S); assay: In vitro affinity of peptides to HLA-A*0201 on T2 cell line (FACS, anti-HLA-A2 labeling); format: cell-based; conditions: T2 cells; for Mean fluorescence intensity: 16 hours
T1 construct: human tumoral cell T2 which expresses the HLA-A*0201 molecule; endogenous in cells; host or cells: T2 cells (human, TAP1/2 negative)
From the text: A method for in vitro testing is well-known to the skilled person. For example, the skilled person may use the experimental protocol as validated for peptides presented by HLA-A*0201 in Tourdot et al., A general strategy to enhance immunogenicity of low-affinity HLA-A2.1-associated peptides: implication in the identification of cryptic tumor epitopes. Eur J Immunol. 2000 December; 30(12):3411-21. In this context, a reference peptide, such as HIV pol 589-597, may be additionally used in the test. This enables calculation of the in vitro affinity relative to the binding observed with the reference peptide, e.g. by the following equation:
Relative affinity=concentration of each peptide inducing 20% of expression of HLA-A*0201/concentration of the reference peptide inducing 20% of expression of HLA-A*0201
(where 100% is the level of HLA-A*0201 expression detected with the reference peptide, e.g. HIV pol 589-597, for example used at a 100 μM concentration).
The experimental protocol is similar to the one that was validated for peptides presented by the HLA-A*0201 (Tourdot et al., A general strategy to enhance immunogenicity of low-affinity HLA-A2.1-associated peptides: implication in the identification of cryptic tumor epitopes. Eur J Immunol. 2000 December; 30(12):3411-21). Affinity measurement of the peptides is achieved with the human tumoral cell T2 which expresses the HLA-A*0201 molecule, but which is TAP1/2 negative and incapable of presenting endogenous peptides.
(§2) T2 cells (2.10^5 cells per well) were incubated with decreasing concentrations of peptides from 100 μM to 0.1 μM in a AIMV medium supplemented with 100 ng/μl of human β2m at 37° C. for 16 hours. Cells were then washed two times and marked with the anti-HLA-A2 antibody coupled to PE (clone BB7.2, BD Pharmagen).
The analysis was performed by FACS (Guava Easy Cyte). For each peptide concentration, the geometric mean of the labeling associated with the peptide of interest was subtracted from background noise and reported as a percentage of the geometric mean of the […] labeling obtained for the reference peptide HIV pol 589-597 at a concentration of 100 μM. The relative affinity is then determined as follows:
relative affinity=concentration of each peptide inducing 20% of expression of HLA-A*0201/concentration of the reference peptide inducing 20% of expression of HLA-A*0201.
The experimental protocol, materials and methods correspond to those outlined in Example 4, with the only difference that the above mentioned antigenic peptides were used.
as §2, with “β2 m” for “β2m”

[3] = tested on: U87 cells; assay: In vitro cytotoxicity of CD3+ T cells from immunized mice against U87-MG cells (Example 7); format: cell-based, human; conditions: CD3+ T cells of HHD/DR3 mice immunized with labelled peptide, 72 hours co-culture with U87-MG, annexin V/DAPI
Method: Briefly, […] T cells from mice immunized with IL13RA2-H or […] were used. These cells were obtained after sorting of splenocyte from immunized mice and were placed on top of U87 cells (tumor cells expressing IL13RA2).
In more detail, CD3^+ T cells were purified from splenocytes of HHD mice immunized with IL13RA2-H (WLPFGFILI, SEQ ID NO: 1) or IL13RA2-B (FLPFGFILV, SEQ ID NO: 18). To this end, B6 β2m^ko HHD/DR3 mice were injected s.c. at tail base with 100 μL of an oil-based emulsion containing vaccination peptide plus helper peptide plus CFA (complete Freund's adjuvant), at day 0 and day 14 as described in Example 6. On d21, i.e. seven days after the boost injection, the animals were euthanized and the spleen was harvested. Splenocytes were prepared by mechanical disruption of the organ. CD3+ purification was performed using the mouse total T cells isolation kit from Miltenyi biotec using the recommended procedure. Efficient purification of cells and viability was validated by cytometry using appropriate marker for viability, CD8, CD4, CD3, and CD45. […]
72 hours after co-culture of U87-MG cells and CD3+ T cells, all cells from the wells were harvested and specific U87-MG cell death was evaluated after immunostaining of CD45 negative cells with DAPI and fluorescent annexin V followed by cytometry analysis.

[4] = tested on: splenocytes (IFNγ secretion); assay: ELISPOT-IFNγ on splenocytes of β/A2/DR3 mice vaccinated with IL13RA2 peptides (Example 6); format: in vivo, mouse; conditions: for Percentage of ConA-induced response (mean+/-SEM), ELISPOT-IFNγ: β/A2/DR3 mice vaccinated s.c. d0 and d14 with labelled peptide (100 μg) + HHD-DR3 helper + IFA, d21
From the text: Briefly, 14 β/A2/DR3 mice were assigned randomly (based on mouse sex and age) to two experimental groups, each immunized with a specific vaccination peptide (vacc-pAg) combined to a common helper peptide (h-pAg) (as outlined in Table 7 below). The vacc-pAg were compared in couples (group 1 vs. group 2). Thereby, both native and optimized versions of a single peptide were compared in each wave.
as §1
Seven days after the boost injection (i.e. on d21), the animals were euthanized and the spleen was harvested. Splenocytes were prepared by mechanical disruption of the organ followed by 70 μm-filtering and Ficoll density gradient purification.
The splenocytes were immediately used in an ELISPOT-IFNγ assay (Table 8). Experimental conditions were repeated in quadruplets, using 2*10^5 total splenocytes per well, and were cultured in presence of vacc-pAg (10 μM), Concanavalin A (ConA, 2.5 μg/mL) or medium-only to assess for their capacity to secrete IFNγ. The commercial ELISPOT-IFNγ kit (Diaclone Kit Mujrine IFNγ ELISpot) was used following the manufacturer's instructions, and the assay was performed after about 16 h of incubation.
Spots were counted on a Grand ImmunoSpot® S6 Ultimate UV Image Analyzer interfaced to the ImmunoSpot 5.4 software (CTL-Europe). Data plotting and statistical analysis were performed with the Prism-5 software (GraphPad Software Inc.).
The data were then normalized as a number of specific spots (the average counts obtained in the ‘medium only’ condition being subtracted) per 10^6 total T cells.
The individual average values (obtained from the quadruplicates) were next used to plot the group average values (see FIG. 3A). As the functional capacity of T cells might vary from individual to individual, the data were also expressed as the percentage of the ConA response per individual (see FIG. 3B).

[5] = molecular target: T2, HLA-A*0201 molecule on human T2 cells (human); assay: T2 cell HLA-A*0201 binding assay, flow cytometry
T2 construct: MHC class I molecule on T2 cells; also called HLA.A2.01
Method: T2 cells (2.10⁵ cells per well) were incubated with decreasing concentrations of peptides from 100 μM to 0.1 μM in a AIMV medium supplemented with 100 ng/μl of human β2m at 37° C. for 16 hours.
The analysis was performed by FACS (Guava Easy Cyte). […] The relative affinity is then determined as follows:

[6] = ex vivo re-stimulation with IL13RA2-B pAg 10 μM
[7] = ex vivo re-stimulation with IL13RA2-H pAg 10 μM

GAMLVGAVL (Sequence variant) [H2 Db B2, bacterial peptide from microbiota of C57BL/6 mice, variant of Stra6 peptide]
T cell responses in the ELISPOT-IFNγ assay (in words) [1]: induced improved T cell responses | T cell responses in the ELISPOT-IFNγ assay against the murine reference epitopes (in words) [1]: also induced improved T cell responses

LMDLSTTPL (listed as Homo sapiens) [SEQ ID NO: 59, reference compound]
Concentration inducing 20% of expression of the HLA-A*0201 [2]: 12.6 µM | Binding to HLA-A*0201 (in words) ([2]; in vitro): bind | Mean fluorescence intensity ([2]; peptide at 3 μM): 0.9 | Mean fluorescence intensity ([2]; peptide at 25 μM): 65.4 | Mean fluorescence intensity ([2]; peptide at 100 μM): 77.6

WLPFGFILI (listed as Homo sapiens) [SEQ ID NO: 1, reference compound]
U87 cell lysis (in words) [3]: not | Percentage of ConA-induced response (mean+/-SEM), ELISPOT-IFNγ [4, 6]: 2.0% | Percentage of ConA-induced response (mean+/-SEM), ELISPOT-IFNγ [4, 7]: 1.1%

FLPFGFILV (sequence variant) [SEQ ID NO: 18]
U87 cell lysis (in words) [3]: U87 cell lysis was observed | Percentage of ConA-induced response (mean+/-SEM), ELISPOT-IFNγ [4, 6]: 56.3% | Percentage of ConA-induced response (mean+/-SEM), ELISPOT-IFNγ [4, 7]: 32.3% | T cell responses in the ELISPOT-IFNγ assay (in words) ([4]; β/A2/DR3 mice, vaccination, compared to IL13RA2-H-vaccinated animals): induced improved T cell responses

KPSVFLLTL (Sequence variant) [H2 Ld B5, bacterial peptide from microbiota of BALB/c mice, variant of Phtf1 peptide]
T cell responses in the ELISPOT-IFNγ assay (in words) [1]: induced improved T cell responses | T cell responses in the ELISPOT-IFNγ assay against the murine reference epitopes (in words) [1]: also induced improved T cell responses

B1: human FOXM1 reference epitope FOXM1-H2 (SEQ ID NO: 59, LMDLSTTPL) (peptide)
peptide: LMDLSTTPL
notes: 9-mer peptide derived from human FOXM1; also called FOXM1-H2 pAg
concentration inducing 20% of expression of HLA-A*0201 [5]: 12.6 µM

B2: human IL13RA2 reference epitope IL13RA2-H (SEQ ID NO: 1, WLPFGFILI) (peptide)
peptide: WLPFGFILI
notes: 9-mer peptide derived from human IL13RA2; also called IL13RA2-H pAg
concentration inducing 20% of expression of HLA-A*0201 [5]: 100 µM

B3: bacterial peptide IL13RA2-B (SEQ ID NO: 18, FLPFGFILV) (peptide)
peptide: FLPFGFILV
notes: 9-mer synthetic peptide; also called IL13RA2-B pAg
concentration inducing 20% of expression of HLA-A*0201 [5]: 4.4 µM

B4: bacterial peptide FOXM1-B2 (SEQ ID NO: 75, LMDLSTTEV) (peptide)
peptide: LMDLSTTEV
notes: also called FOXM1-B2 pAg
concentration inducing 20% of expression of HLA-A*0201 [5]: 6.7 µM

From US20200256877A1, “Microbiota Sequence Variants Of Tumor-Related Antigenic Epitopes” (ENTEROME S.A., priority 2017, published 2020)
